Assay results reported in US20230263762A1, “COMPOSITION AND METHOD FOR TREATING INFECTIONS” (priority 2020, published 2023).

How the values were obtained:
SARS-CoV-2 = assay: Direct injection of Sx mixture or its components into virus suspension, Vero E6 plaque assay; assay type: cell-based; settings: for activity of the component alone: direct injection (FIGS. 20 and 21)
[1] = test system: SARS-CoV-2 (USA-WA1/2020 strain); assay: Direct injection into viral suspension, plaque assay on Vero E6 cells; assay type: cell-based; settings: for reduction of viral burden by individual components: 1.4 and 3.9 µls propionic acid, 0.6 and 1.1 µls isoamyl hexanoates; for decline in viral burden: 360 mins post-addition
[2] = target: RBD of the SARS-CoV-2 spike protein to ACE2 (Severe acute respiratory syndrome coronavirus 2, UniProt P0DTC2); settings: cited from earlier work
[3] = propionic acid alone, direct injection

Molecule	reduction in activity of the virus (SARS-CoV-2; acid alone at 3.9 µL)	activity of the component alone (SARS-CoV-2)	time to complete inactivation of the virus (SARS-CoV-2; propionic acid alone at 7.7 µL)	volume of acid necessary for relative immediate inactivation of the virus (SARS-CoV-2; [3])	volume of acid necessary to get any appreciable activity (SARS-CoV-2; [3])	reduction of viral burden by individual components [1]	decline in viral burden ([1]; 1.4 µls alone)	decline in viral burden ([1]; 3.9 µls alone)	time to undetectable levels of virus ([1]; 7.7 µl alone, direct injection)	time to undetectable viral burden ([1]; 15.4 µls alone, direct injection)	EC50 volume over the entire study ([1]; direct injection, entire 360 min study (AUC of viral burden-time), 37° C.)	reduction of the binding affinity of RBD to ACE2 ([2]; addition of peptide to SARS-CoV-2)	reduction of virus activity ([2]; peptide added to the virus)	reduction in activity of the virus (SARS-CoV-2; esters alone (1.1 µL), at about 100 min)	reduction in virus activity (SARS-CoV-2; esters alone, highest concentration of 4.6 µL, over 300 minutes)	general reduction in virus activity (SARS-CoV-2; esters alone, within about 30 min, over the range of concentrations tested)	suppression of SARS-CoV-2 replication, component alone ([1]; direct injection, all treatment arms (FIG. 7B))
CCC(=O)O [propionic acid]	about 0.5 log	only has marginal biological activity	220 min	at least 15.4 µL	up to 7.7 µL	minimal reduction of viral burden	0.29 log10 PFU/ml	0.98 log10 PFU/ml	240 min	15 min	6.2 µls	–	–	–	–	–	–
GluGluLeuGlu	–	–	–	–	–	–	–	–	–	–	–	34%	34%	–	–	–	–
isoamyl hexanoates	–	no lasting activity	–	–	–	minimal reduction of viral burden	–	–	–	–	–	–	–	~1 log	1 order of magnitude	~1 log	substantially less effective
